From patent publication US9271961B2, “Bifunctional AKR1C3 inhibitors/androgen receptor modulators and methods of use thereof” (THE TRUSTEES OF THE UNIVERSITY OF PENNSYLVANIA, priority 2011, dated 2016)

Columns and labels:
AKR1C enzymes = experiment: Inhibition of AKR1C enzymes (FIG. 20); format: biochemical
AKR1C3 [1] = biological target: T1, AKR1C3 (Homo sapiens (Human), UniProt P42330); experiment: Inhibition of NADP+ dependent oxidation of S-tetralol by recombinant AKR1C3; format: biochemical; settings: for IC50: S-tetralol oxidation, substrate at KM
Description: The inhibitory potency of the compounds disclosed herein was determined using purified homogenous recombinant enzymes. Full concentration response studies were conducted and IC50 values calculated using Grafit 5.0 software. The compounds were evaluated for their effects on enzyme catalyzed oxidation of S-tetralol using a 96-well plate format.
The primary screen was also modified to report the following ratio: AKR1C2 IC50 value:AKR1C3 IC50 value. […] When bifunctional AKR1C3 and SARMs are sought the androgen receptor reporter gene assay is moved up in sequence.
Based on this assumption, the screening strategy adopted was to determine the inhibitory potency of each compound against AKR1C2 and AKR1C3 and use the ratio of IC50 value for AKR1C2:IC50 value for AKR1C3 as an index of compound selectivity for AKR1C3. The inhibitory potency of compounds on AKR1C2 and AKR1C3 was determined by measuring the inhibition of the NADP^+ dependent oxidation of S-tetralol.

AKR1C3 [2] = biological target: T1, AKR1C3; experiment: Conversion of Δ4-AD to testosterone in LNCaP cells stably transfected with AKR1C3; format: cell-based; settings: for amount of testosterone formed from Δ4-AD: LNCaP-AKR1C3 cells; for conversion of Δ4-AD to testosterone: LNCaP-AKR1C3 transfected cells, 10 μM
Description: LNCaP cells were stably transfected with AKR1 C3 using the retroviral construct pLNCX-AKR1C3, and its expression was documented using both RT-PCR and immunoblot analysis using an isoform specific monoclonal AKR1C3 antibody (Byrns et al., 2012, J. Steroid Biochem. Mol. Biol. 130:7-15). Metabolism studies of 0.1 μM and 5.0 μM [^14C]-Δ^4-AD were conducted in LNCaP and LNCaP-AKR1C3 cells with the anticipation that the transfected cells would form more testosterone. The bulk of the metabolites formed in LNCaP cells were found in the aqueous phase. When this phase was treated with β-glucuronidase (200 units/mL at pH 6.6) and re-extracted, androsterone was the predominate metabolite released into the organic soluble fraction providing evidence for the formation of androsterone-3α-glucuronide. When LNCaP-AKR1C3 transfected cells were used, the bulk of the metabolites were again found in the aqueous phase. However, β-glucuronidase treatment of the aqueous phase yielded both androsterone and testosterone, providing evidence for testosterone formation by these cells.
Tertiary screens of the compounds of interest include: (a) inhibition of the conversion of Δ^4-AD to testosterone in LNCaP (AR dependent prostate cancer) cells stably transfected with AKR1C3; (b) inhibition of Δ^4-AD mediated cell proliferation in LNCaP cells stably transfected with AKR1C3; and (c) inhibition of growth of castrate resistant prostate cancer cells in culture.

[3] = test system: mutated AR and PSA expression; experiment: Mutated AR levels and PSA expression in LNCaP-AKR1C3 cells; format: cell-based; settings: presence of either 1.0 nM 5α-DHT or 100 nM Δ4-AD
AKR1C3 [4] = biological target: T1, AKR1C3; experiment: Inhibition of AKR1C3 catalyzed reduction of Δ4-androstene-3,17-dione to testosterone; format: biochemical
Text: Compounds may be evaluated as selective reversible inhibitors of AKR1C3 by screening them against homogeneous recombinant AKR1C1-AKR1C4 expressed in E. coli. […] IC50 values are generated using steroid concentrations at KM.
The primary screen was also modified to report the following ratio: AKR1C2 IC50 value:AKR1C3 IC50 value. A high ratio reflects a high selectivity for AKR1C3 and data are used to generate heat-maps, FIG. 14. This method is preferred to measuring percent inhibition using a single concentration of 1.0 μM inhibitor, since this single point method is prone to identifying false positives. […] The leads may then be moved into secondary in vitro screens (complete screen against all human AKR isoforms; COX-1 and COX-2; and other relevant human 17β-HSD isoforms); tertiary screens using cell-based assays (inhibition of AKR1C3 mediated testosterone production and AKR1C3 mediated cell proliferation in prostate cancer cell lines; and modulation of the androgen receptor in reporter gene assays); and quaternary screens in xenograft models of CRPC. When bifunctional AKR1C3 and SARMs are sought the androgen receptor reporter gene assay is moved up in sequence.

COX-2 = COX-2 (Homo sapiens (Human), UniProt P35354); experiment: Screen against COX-2; format: biochemical
AR [5] = biological target: T2, AR (Homo sapiens (Human), UniProt P10275); experiment: AR nuclear translocation from the cytosol in HeLa 13 cells; settings: presence of DHT
Description: AR LE and AR SE=long and short exposure to detect cytoplasmic AR. β-tubulin was used as a loading control.

[6] = test system: prostatic specific antigen (PSA) gene expression; experiment: AR regulated PSA gene expression in LNCaP cells; format: cell-based; settings: 10-30 μM, presence and absence of 5α-DHT (0.1-1.0 nM)
COX-1 = COX-1 (Homo sapiens (Human), UniProt P23219); experiment: Screen against COX-1; format: biochemical
AR [7] = biological target: T2, AR; experiment: AR stability / degradation in Hela cells; format: cell-based; settings: 10-40 μM, presence and absence of 0.1 nM 5α-DHT
[8] = biological target: retinal reductase (AKR1B10) (Homo sapiens (Human), UniProt O60218); experiment: Secondary screen against retinal reductase; format: biochemical
[9] = biological target: aldose reductase (AKR1B1) (Homo sapiens (Human), UniProt P15121); experiment: Secondary screen against aldose reductase; format: biochemical

## 4-chloro-N-phenylanthranilate [reference compound]
AKR1C enzymes
  inhibition of AKR1C enzymes: inhibits

## O=C(O)c1ccccc1Nc1cccc(C(F)(F)F)c1 [Compound 1, Flufenamic Acid, reference compound]
AKR1C3 [1]
  IC50: 50 nM

## O=C(O)c1cccc(Nc2ccccc2)c1 [Compound 3, 3-Phenylamino benzoic acid]
AKR1C3 [1]
  IC50: 940 nM

## O=C(O)c1cccc(Nc2ccc([N+](=O)[O-])cc2)c1 [Compound 5, 3-[N-(4-nitrophenyl)amino]benzoic acid]
AKR1C3 [1]
  AKR1C3 inhibitory potency (in words): low nanomolar range
  IC50: 36 nM

## O=C(O)c1cccc(Nc2ccc(C(F)(F)F)cc2)c1 [Compound 7, 3-[N-(4-Trifluoromethylphenyl)amino]benzoic acid]
AKR1C3 [2]
  amount of testosterone formed from Δ4-AD: significant decline

## O=C(O)c1cccc(Nc2ccc(Cl)cc2)c1 [Compound 8, 3-[N-(4-Chlorophenyl)amino]benzoic acid]
AKR1C3 [2]
  conversion of Δ4-AD to testosterone: completely blocked

## O=C(O)c1cccc(Nc2ccc([N+](=O)[O-])c3ccccc23)c1 [Compound 13, 3-((4-nitronaphthalen-1-yl)amino)benzoic acid]
AKR1C3 [2]
  amount of testosterone formed from Δ4-AD: significant decline
  conversion of Δ4-AD to testosterone: completely blocked
[3]
  expression of the mutated AR and PSA: decrease
AKR1C3 [4]; Δ4-AD as substrate, E.NADPH.Δ4-AD complex
  pattern of inhibition of AKR1C3: competitive inhibition
AKR1C3 [4]; Δ4-androstene-3,17-dione as substrate
  Ki: 2470 nM
COX-2
  inhibition of COX-2: failed to inhibit
AR [5]
  cytoplasmic AR (prevention of nuclear localization of the AR): dose dependent increase in cytoplasmic AR
[6]
  expression of PSA: block the expression of PSA
COX-1
  inhibition of COX-1: failed to inhibit
AR [7]
  degradation of the AR: dose-dependent degradation
[8]
  inhibition of retinal reductase (AKR1B10): failed to inhibit
AKR1C3 [1]; AKR1C3
  slope factor of the inhibition dose-response curve: approximately two
AKR1C3 [1]; S-tetralol as substrate
  Ki: 58.2 nM
AKR1C3 [1]; S-tetralol as substrate, E.NADP+.S-tetralol complex
  pattern of inhibition of AKR1C3: competitive inhibition
AKR1C3 [1]
  IC50: 75 nM
[9]
  inhibition of aldose reductase (AKR1B1): failed to inhibit
